{"source": "patent US10954305B2", "about": "(Immunomedics, Inc., priority 2016, dated 2021)", "key": {"[1]": {"settings": "Weidner et al., 2015; cited from earlier work"}, "NCI-N87-S120": {"tested_on": "NCI-N87-S120", "experiment": "in vitro cytotoxicity, MTS (Table 14)", "type": "cell-based, human", "settings": "for IC50: NCI-N87-S120, YHO-13351 2 μM, Ko143 1 μM where added; for RF (resistance factor): IC50 mean of NCI-N87-S120 / NCI-N87", "method": "(§1) Each cell line was maintained according to the recommendations of ATCC and routinely tested for mycoplasma using MYCOALERT™ mycoplasma detection kits (Lonza). The two SN-38-resistant cell lines, MDA-MB-231-5120 and NCI-N87-S120, were established by continuous exposure of the parental cells to stepwise increased concentrations of SN-38 from 6 pM to 120 nM over a period of approximately 2 years. In addition, a revertant cell line (NCI-N87-S120-REV) was obtained after culturing NCI-N87-S120 in SN-38-free medium for 4 months. The S-120 clones were maintained in medium containing 120 nM of SN-38, but cultured in drug-free medium for 7 to 14 days prior to any experiment. All cells were grown at 37° C. as monolayer cultures in a humidified atmosphere of 5% CO2.\n(§2) In Vitro cytotoxicity. […] Briefly, cells were placed into wells of 96-well plates. […] From these working solutions, serial 5-fold dilutions were made in sterile media to yield final concentrations between 500 and 0.0064 nM in test wells. […] Cytotoxicity was measured as a percent of growth relative to untreated cells. Dose-response curves were generated from the mean of triplicate determinations, and IC50 values were calculated using GraphPad Prism Software V 6.05 (Advanced Graphics Software).\n(§3) The effect of ABCG2 inhibitors on the IC50 values of SN-38 for the parental and resistant cell lines was determined from the respective dose-response curves obtained for SN-38 in the presence of a non-toxic concentration of ABCG2 inhibitors."}, "sublines of PC-6": {"tested_on": "sublines of PC-6", "settings": "Kawabata et al., 2001; cited from earlier work"}, "subline of H23": {"tested_on": "subline of H23", "settings": "Bessho et al., 2006; cited from earlier work"}, "sublines of HeLa": {"tested_on": "sublines of HeLa", "settings": "Takara et al., 2009; cited from earlier work"}, "NCI-N87 [2]": {"tested_on": "NCI-N87", "experiment": "in vitro cytotoxicity, MTS (Table 14)", "type": "cell-based", "settings": "Homo sapiens, YHO-13351 2 μM, Ko143 1 μM where added", "method": "as §1\nIn Vitro cytotoxicity. […] Briefly, cells were placed into wells of 96-well plates. […] Cytotoxicity was measured as a percent of growth relative to untreated cells. Dose-response curves were generated from the mean of triplicate determinations, and IC50 values were calculated using GraphPad Prism Software V 6.05 (Advanced Graphics Software).\nas §3"}, "MDA-MB-231-S120": {"tested_on": "MDA-MB-231-S120", "experiment": "in vitro cytotoxicity, MTS (Table 14)", "type": "cell-based, human", "settings": "for IC50: MDA-MB-231-S120, YHO-13351 2 μM where added; for RF (resistance factor): IC50 mean of MDA-MB-231-S120 / MDA-MB-231", "method": "as §1, §2, §3"}, "MDA-MB-231 [3]": {"tested_on": "MDA-MB-231", "experiment": "in vitro cytotoxicity, MTS (Table 14)", "type": "cell-based, human", "settings": "YHO-13351 2 μM where added", "method": "as §1, §2, §3"}, "NCI-N87 [4]": {"tested_on": "NCI-N87", "experiment": "double-strand breaks, γH2AX", "type": "cell-based, human", "settings": "250 nM, after 3 h", "method": "(§4) Cells (5×10^5 cells/mL per sample) were incubated with or without SN-38 (250 nM) at 37° C. for the indicated times, fixed in 4% formalin for 15 min, then washed and permeabilized in 0.15% TRITON™ X-100 in PBS for 15 min. After washing twice with 1% bovine serum albumin-PBS, the cells were incubated with murine anti-γH2AX-AF488 for 45 min at 4° C. The signal intensity of γH2AX was measured by flow cytometry using a FACSCALIBUR™ (BD Biosciences)."}, "MDA-MB-231 [5]": {"tested_on": "MDA-MB-231", "experiment": "double-strand breaks, γH2AX", "type": "cell-based, human", "settings": "250 nM, after 3 h", "method": "as §4"}, "NCI-N87-S120-REV": {"tested_on": "NCI-N87-S120-REV", "experiment": "in vitro cytotoxicity, MTS", "type": "cell-based, human", "settings": "revertant after 4 months in SN-38-free medium", "method": "as §1, §2"}, "[6]": {"tested_on": "p21^WAF1/Cip1 in MDA-MB-468", "experiment": "immunoblotting of apoptotic pathway", "type": "cell-based, human", "settings": "by 48 h", "method": "Cells (2×10^6) were plated in 6-well plates overnight. […] Parental hRS7 was used as a control for the ADC."}, "p53 in BxPC-3 and Calu-3": {"tested_on": "p53 in BxPC-3 and Calu-3", "experiment": "p53 expression", "type": "cell-based, human", "method": "In addition, p53 expression in cells exposed to the ADC was higher in both cell lines compared to SN-38 (not shown). […] In terms of later apoptotic events, cleavage of PARP was evident in both cell lines when incubated with either SN-38 or the conjugate (not shown). […] The higher degree of cleavage with free SN-38 over the ADC was consistent with the cytotoxicity findings."}, "p21^Waf1/Cip1 in BxPC-3": {"tested_on": "p21^Waf1/Cip1 in BxPC-3", "experiment": "p21Waf1/Cip1 expression", "type": "cell-based, human", "excerpt": "SN-38 is known to activate several signaling pathways in cells, leading to apoptosis (e.g., Cusack et al., 2001, Cancer Res 61:3535-40; Liu et al. 2009, Cancer Lett 274:47-53; Lagadec et al., 2008, Br J Cancer 98:335-44). Our initial studies examined the expression of 2 proteins involved in early signaling events (p21^Waf1/Cip1 and p53) and 1 late apoptotic event [cleavage of poly-ADP-ribose polymerase (PARP)] in vitro (not shown)."}}}
{"compound": "COc1ccc2c3c([nH]c2c1)[C@H](CC(C)C)N1C(=O)[C@H](CCC(=O)OC(C)(C)C)NC(=O)[C@@H]1C3", "note": "[Ko143]", "values": [{"measurement": "stability in rat serum", "setting": "[1]", "value": "instability"}, {"measurement": "effect on SN-38 toxicity in S-120 cells", "setting": "NCI-N87-S120; both S-120 cells, in vitro", "value": "restored toxicity of SN-38"}]}
{"compound": "COc1cccc2c1C(=O)c1c(O)c3c(c(O)c1C2=O)C[C@@](O)(C(=O)CO)C[C@@H]3O[C@H]1C[C@H](N)[C@H](O)[C@H](C)O1", "note": "[Doxorubicin]", "values": [{"measurement": "resistance ratio", "setting": "sublines of PC-6", "value": "less than 1.3"}, {"measurement": "resistance ratio", "setting": "subline of H23", "value": "about 7.0"}, {"measurement": "resistance ratio", "setting": "sublines of HeLa", "value": 2.5}, {"measurement": "IC50", "setting": "NCI-N87 [2]", "value": "32.2 ± 7.5", "unit": "nM"}, {"measurement": "IC50", "setting": "MDA-MB-231-S120; Homo sapiens", "value": "43.1 ± 4.6", "unit": "nM"}, {"measurement": "RF (resistance factor)", "setting": "MDA-MB-231-S120", "value": 4.0}, {"measurement": "IC50", "setting": "NCI-N87-S120; Homo sapiens", "value": "74.6 ± 3.3", "unit": "nM"}, {"measurement": "RF (resistance factor)", "setting": "NCI-N87-S120", "value": 2.3}, {"measurement": "IC50", "setting": "MDA-MB-231 [3]; Homo sapiens", "value": "10.9 ± 0.6", "unit": "nM"}]}
{"compound": "CCc1c2c(nc3ccc(O)cc13)-c1cc3c(c(=O)n1C2)COC(=O)[C@]3(O)CC", "note": "[SN-38, 7-ethyl-10-hydroxycamptothecin]", "values": [{"measurement": "increase of γH2AX over untreated controls", "setting": "NCI-N87 [4]", "value": "about 4 fold"}, {"measurement": "increase of γH2AX over untreated controls", "setting": "MDA-MB-231 [5]", "value": "about 2 fold"}, {"measurement": "IC50", "setting": "NCI-N87-S120-REV", "value": 50, "unit": "nM"}, {"measurement": "decrease of p21^WAF1/Cip1", "setting": "[6]", "value": 31, "unit": "%"}, {"measurement": "time to upregulation of p53", "setting": "p53 in BxPC-3 and Calu-3", "value": 48, "unit": "h"}, {"measurement": "increase in p21^Waf1/Cip1 expression", "setting": "p21^Waf1/Cip1 in BxPC-3", "value": 20, "unit": "fold"}, {"measurement": "RF (resistance factor)", "setting": "MDA-MB-231-S120", "value": 51.7}, {"measurement": "IC50", "setting": "MDA-MB-231-S120", "value": "248 ± 79", "unit": "nM"}, {"measurement": "RF (resistance factor)", "setting": "NCI-N87-S120", "value": 49.1}, {"measurement": "IC50", "setting": "NCI-N87-S120", "value": "211 ± 39", "unit": "nM"}, {"measurement": "resistance of S-120 cells vs parental cells", "setting": "NCI-N87-S120; both S-120 cells", "value": "about 50 fold"}, {"measurement": "IC50", "setting": "MDA-MB-231 [3]", "value": "4.8 ± 1.7", "unit": "nM"}]}
